Assay: Pharmacokinetic study of the crystal form A of the compound of formula (II-1) in SD rats
Type: in vivo
Experimental: Experimental Purpose: To Study the Pharmacokinetics of the Compounds in SD Rats
Experimental Materials: SD Rats (12, Half Male and Half Female)
Experimental procedure: The pharmacokinetic characteristics of the compounds were tested in rodents after intravenous (IV) and oral (PO) administration using standard protocols. The candidate compounds were prepared into 0.5 mg/mL and 1 mg/mL clarified solutions and administrated to rats for single intravenous injection and oral administration. The solvent for both intravenous and oral administration was 5% DMSO/95% (10% hydroxypropyl β-cyclodextrin) aqueous solution. 12 SD rats were used in this project, and 6 rats (half male and half female) were administered intravenously at a dose of 1 mg/kg and plasma samples were collected at 0.0833, 0.25, 0.5, 1, 2, 4, 8, 12, and 24 h after administration, and the other 6 rats (half male and half female) were administered orally by gavage at a dose of 10 mg/kg and plasma samples were collected at 0.25, 0.5, 1, 2, 4, 8, 12 and 24 h after administration. 15 μL of plasma sample was added to a 96-well plate, and 300 μL of internal standard working solution (MeOH (containing 1.00 ng/mL Verapamil and 0.1% formic acid (FA)): ACN (v:v, 50:50) solution) was added to precipitate the proteins, the 96-well plate was shaken for 15 min, followed by centrifugation at 4° C., 3220 g for 15 min. 150 μL of supernatant was placed in a new 96-well plate with 150 μL of aqueous solution containing 0.1% formic acid (FA) and shaken for 10 min, and then centrifuged at 4° C., 3220 g for 5 min. The samples were directly injected, and the plasma drug concentration was quantitatively analyzed by LC-MS/MS analysis method, and pharmacokinetic parameters were calculated, such as peak concentration (Cmax), clearance rate (CL), half-life (T1/2), […] (Vdss), area under the drug-time curve (AUC0-last), bioavailability (F), etc.

COc1cccc(C(CN)NC(=O)c2cc(-c3ccc4[nH]nc(C)c4c3)ccn2)c1.Cl.Cl (stereo not shown)
Clearance rate CL (SD rats, IV 1 mg/kg): 22.4 mL/min/kg | Half-life T1/2 (IV) (SD rats, IV 1 mg/kg): 4.93 h | Tissue distribution Vdss (SD rats, IV 1 mg/kg): 7.39 L/kg | Bioavailability F (SD rats, IV 1 mg/kg, PO 10 mg/kg): 17.8% | Area under drug-time curve AUC0-last PO (SD rats, PO 10 mg/kg): 3.69 µM·h | Cmax (SD rats, half male and half female, PO 10 mg/kg, read-out: Peak concentration Cmax): 519 nM | pharmacokinetic properties (conclusion in words) (rats): good pharmacokinetic properties

From patent publication US11702400B2, “Salt types, crystal forms, and preparation methods for benzopyrazole compounds as RHO kinase inhibitors” (MEDSHINE DISCOVERY INC., priority 2019, dated 2023)
